Experimental findings from patent publication US11795177B2, “Substituted quinoline analogs as aldehyde dehydrogenase 1A1 (ALDH1A1) inhibitors” (THE UNITED STATES OF AMERICA, AS REPRESENTED BY THE …, priority 2017, dated 2023) are described below.

This assay concerns MIA PaCa-2 cells. In words: MIA PaCa2 cell-based assay (1,536-well high-content imaging ALDEFLUOR assay). Also on record: species or system human. To be noted: Homo sapiens, 0.5 h, ALDEFLUOR BAAA substrate 500 nM, 30 minutes. In a few lines:
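High-content ALDEFLUOR imaging readout: BAA-retaining cells in FITC channel scored against Hoechst-counted nuclei. Before imaging, MIA PaCa-2 cells seeded at 1,000 per well received final 500 nM BAAA and 0.5 nM Hoechst with compounds in 16-point series (1.4 nM to 47.8 μM), 30 min, 37° C.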

With `CC1(C#N)CCN(c2c(C(=O)N3CCN(C(=O)C4CC4)CC3)cnc3ccsc23)CC1` [Example 233, 1-(6-(4-(cyclopropanecarbonyl)piperazine-1-carbonyl)thieno[3,2-b]pyridin-7-yl)-4-methylpiperidine-4-carbonitrile], the IC50 was in the range of 500 to 1000 nM. The result for `CC1(C#N)CCN(c2c(C(=O)N3CCN(S(C)(=O)=O)CC3)cnc3ccsc23)CC1` [Example 234, 4-methyl-1-(6-(4-(methylsulfonyl)piperazine-1-carbonyl)thieno[3,2-b]pyridin-7-yl)piperidine-4-carbonitrile] reads 1000 to 10000 nM; that for `CC1(C#N)CCN(c2c(C(=O)N3CCN(S(C)(=O)=O)CC3)cnc3[nH]ncc23)CC1` [Example 235, 4-methyl-1-(5-(4-(methylsulfonyl)piperazine-1-carbonyl)-1H-pyrazolo[3,4-b]pyridin-4-yl)piperidine-4-carbonitrile], more than 10000 nM.

As for `CC1(C#N)CCN(c2c(C(=O)N3CCN(S(C)(=O)=O)CC3)cnc3[nH]ccc23)CC1` [Example 236, 4-methyl-1-(5-(4-(methylsulfonyl)piperazine-1-carbonyl)-1H-pyrrolo[2,3-b]pyridin-4-yl)piperidine-4-carbonitrile], the IC50 fell in the range of 1000 to 10000 nM. In turn, `N#CC1(CC2CC2)CCN(c2c(C(=O)N3CCN(C(=O)C4CC4)CC3)cnc3ccc(F)cc23)CC1` [Example 242, 1-(3-(4-(cyclopropanecarbonyl)piperazine-1-carbonyl)-6-fluoroquinolin-4-yl)-4-(cyclopropylmethyl)piperidine-4-carbonitrile] came in with an IC50 of 500 to 1000 nM.

Molecule `N#CC1(Cc2ccccc2)CCN(c2c(C(=O)N3CCN(C(=O)C4CC4)CC3)cnc3ccc(F)cc23)CC1` [Example 244, 4-benzyl-1-(3-(4-(cyclopropanecarbonyl)piperazine-1-carbonyl)-6-fluoroquinolin-4-yl)piperidine-4-carbonitrile] yielded an IC50 of more than 10000 nM. As for `CS(=O)(=O)N1CCN(C(=O)c2cnc3ccc(F)cc3c2N2CCC(C#N)(Cc3ccccc3)CC2)CC1` [Example 245, 4-benzyl-1-(6-fluoro-3-(4-(methylsulfonyl)piperazine-1-carbonyl)quinolin-4-yl)piperidine-4-carbonitrile], the figure is 1000 to 10000 nM; as for `CS(=O)(=O)N1CCN(C(=O)c2cnc3ccc(F)cc3c2N2CCC3(CC2)C(=O)Cc2ccccc23)CC1` [Example 247, 1′-(6-fluoro-3-(4-(methylsulfonyl)piperazine-1-carbonyl)quinolin-4-yl)spiro[indene-1,4′-piperidin]-2(3H)-one], 1000 to 10000 nM; as for `CS(=O)(=O)N1CCN(C(=O)c2cnc3ccc(F)cc3c2N2CCC(CO)(c3ccccc3)CC2)CC1` [Example 256, (6-fluoro-4-(4-(hydroxymethyl)-4-phenylpiperidin-1-yl)quinolin-3-yl)(4-(methylsulfonyl)piperazin-1-yl)methanone], 1000 to 10000 nM.

Turning to `CS(=O)(=O)N1CCN(C(=O)c2cnc3ccc(F)cc3c2N2CCC(C=O)(c3ccccc3)CC2)CC1` [Example 257, 1-(6-fluoro-3-(4-(methylsulfonyl)piperazine-1-carbonyl)quinolin-4-yl)-4-phenylpiperidine-4-carbaldehyde], the IC50 is less than 500 nM. The result for `CN(C)S(=O)(=O)N1CCN(C(=O)c2cnc3ccc(F)cc3c2-c2ccc(C3(C#N)CC3)cc2)CC1` [Example 260, 4-(4-(4-(1-cyanocyclopropyl)phenyl)-6-fluoroquinoline-3-carbonyl)-N,N-dimethylpiperazine-1-sulfonamide] reads less than 500 nM. As for `N#CC1(c2ccc(-c3c(C(=O)N4CCN(C(=O)C5CC5)CC4)cnc4ccc(F)cc34)cc2)CC1` [Example 262, 1-(4-(3-(4-(cyclopropanecarbonyl)piperazine-1-carbonyl)-6-fluoroquinolin-4-yl)phenyl)cyclopropanecarbonitrile], the figure is less than 500 nM. With `CC(C)(C#N)c1ccc(-c2c(C(=O)N3CCN(C(=O)C4CC4)CC3)cnc3ccc(F)cc23)cc1` [Example 264, 2-(4-(3-(4-(cyclopropanecarbonyl)piperazine-1-carbonyl)-6-fluoroquinolin-4-yl)phenyl)-2-methylpropanenitrile], the IC50 is less than 500 nM. Regarding `CN(C)C(=O)N1CCN(C(=O)c2cnc3ccc(F)cc3c2-c2ccc(C3(C#N)CC3)cc2)CC1` [Example 265, 4-(4-(4-(1-cyanocyclopropyl)phenyl)-6-fluoroquinoline-3-carbonyl)-N,N-dimethylpiperazine-1-carboxamide], the IC50 was less than 500 nM. As for `CN(C)S(=O)(=O)N1CCN(C(=O)c2cnc3ccc(F)cc3c2N2CCC(C#N)(c3ccccc3)CC2)CC1` [Example 270, 4-(4-(4-cyano-4-phenylpiperidin-1-yl)-6-fluoroquinoline-3-carbonyl)-N,N-dimethylpiperazine-1-sulfonamide], the figure is less than 500 nM; as for `CN(C)C(=O)N1CCN(C(=O)c2cnc3ccc(F)cc3c2N2CCC(C#N)(c3ccccc3)CC2)CC1` [Example 272, 4-(4-(4-cyano-4-phenylpiperidin-1-yl)-6-fluoroquinoline-3-carbonyl)-N,N-dimethylpiperazine-1-carboxamide], less than 500 nM. As for `CS(=O)(=O)N1CCN(C(=O)c2cnc3ccc(F)cc3c2N2CCC(C#N)(c3ccccc3F)CC2)CC1` [Example 274, 1-(6-fluoro-3-(4-(methylsulfonyl)piperazine-1-carbonyl)quinolin-4-yl)-4-(2-fluorophenyl)piperidine-4-carbonitrile], the figure is less than 500 nM. The result for `CS(=O)(=O)N1CCN(C(=O)c2cnc3ccc(F)cc3c2N2CCC(C#N)(c3ccc(Cl)cc3)CC2)CC1` [Example 275, 4-(4-chlorophenyl)-1-(6-fluoro-3-(4-(methylsulfonyl)piperazine-1-carbonyl)quinolin-4-yl)piperidine-4-carbonitrile] reads less than 500 nM; that for `CS(=O)(=O)N1CCN(C(=O)c2cnc3ccc(F)cc3c2N2CCC(C#N)(c3ccc(F)cc3)CC2)CC1` [Example 279, 1-(6-fluoro-3-(4-(methylsulfonyl)piperazine-1-carbonyl)quinolin-4-yl)-4-(4-fluorophenyl)piperidine-4-carbonitrile], less than 500 nM. The molecule `N#CC1(c2ccccc2)CCN(c2c(C(=O)N3CCN(C(=O)C4CC4)CC3)cnc3ccsc23)CC1` [Example 282, 1-(6-(4-(cyclopropanecarbonyl)piperazine-1-carbonyl)thieno[3,2-b]pyridin-7-yl)-4-phenylpiperidine-4-carbonitrile] came in with a half-maximal inhibitory concentration (IC50) of less than 500 nM. The result for `CS(=O)(=O)N1CCN(C(=O)c2cnc3ccsc3c2N2CCC(C#N)(c3ccccc3)CC2)CC1` [Example 285, 1-(6-(4-(methylsulfonyl)piperazine-1-carbonyl)thieno[3,2-b]pyridin-7-yl)-4-phenylpiperidine-4-carbonitrile] reads less than 500 nM. As for `CS(=O)(=O)N1CCN(C(=O)c2cnc3ccsc3c2-c2ccc(C3(C#N)CC3)cc2)CC1` [Example 286], the figure is less than 500 nM; as for `N#CC1(c2ccc(-c3c(C(=O)N4CCN(C(=O)C5CC5)CC4)cnc4ccsc34)cc2)CC1` [Example 288, 1-(4-(6-(4-(cyclopropanecarbonyl)piperazine-1-carbonyl)thieno[3,2-b]pyridin-7-yl)phenyl)cyclopropanecarbonitrile], less than 500 nM. Consider `CS(=O)(=O)N1CCN(C(=O)c2cnc3ccc(F)cc3c2N2CCC(O)(c3ccccc3)CC2)CC1` [Example 292, (6-fluoro-4-(4-hydroxy-4-phenylpiperidin-1-yl)quinolin-3-yl)(4-(methylsulfonyl)piperazin-1-yl)methanone], for which the IC50 was in the range of 1000 to 10000 nM. The result for `N#CC1(c2ccc(-c3c(C(=O)N4CCN(C(=O)C5CC5)CC4)cnc4ccc(Cl)cc34)cc2)CC1` [Example 294, 1-(4-(6-chloro-3-(4-(cyclopropanecarbonyl)piperazine-1-carbonyl)quinolin-4-yl)phenyl)cyclopropanecarbonitrile] reads less than 500 nM; that for `CS(=O)(=O)N1CCN(C(=O)c2cnc3ccc(Cl)cc3c2-c2ccc(C3(C#N)CC3)cc2)CC1` [Example 297, 1-(4-(6-chloro-3-(4-(methylsulfonyl)piperazine-1-carbonyl)quinolin-4-yl)phenyl)cyclopropanecarbonitrile], less than 500 nM. `CC1(C)CC=C(c2c(C(=O)N3CCN(S(C)(=O)=O)CC3)cnc3ccc(F)cc23)CC1` [Example 301, (4-(4,4-dimethylcyclohex-1-en-1-yl)-6-fluoroquinolin-3-yl)(4-(methylsulfonyl)piperazin-1-yl)methanone]: the IC50 is less than 500 nM.
